Here are results for 13 compounds from patent US20100055168A1, “CATIONIC LIPIDS AND USES THEREOF” (ABBOTT LABORATORIES, priority 2008, published 2010).

The structures appear in SMILES notation.

Holding throughout (type): physicochemical
Common to all, as to conditions: Lipid:siRNA 25:1

A short description of series [1]: Ribogreen assay for siRNA encapsulation efficiency of Lipid-Based Particles. The method, then:
The mixing solution of cationic lipids, cholesterol, non-cationic lipids and PEG-lipids was prepared in ethanol (total concentration at 10 mg/mL). siSTABLE (purchased from ThermoFisher) (sense-5′ GGGGAAAGCUGGCAAGAUUUU-3′ SEQ ID NO: 1) antisense-5′-AAUCUUGCCAGCUUUCCCCUU-3′ SEQ ID NO: 2) % stock solution was prepared in 10 mg/mL of solution by dissolving 10 mg siRNA in 1 mL of RNAse-free UltraPure Water. The calculated amount of siRNA solution was added to 1 mL of citrate buffer (pH 4.0, 20 mM), to provide an siRNA concentration of 0.2 mg/mL, and warmed to 60° C. The calculated amount of lipid solution was warmed to 60° C., transferred to a 0.5 mL syringe with 28½ gauge needle, and injected into the citrate buffer with stirring at 60° C. After 3 minutes, 3 mL of PBS solution at room temperature (pH 7.4) was added into the lipid mixture with stirring. The Lipid-Based Particle solution was cooled to room temperature.
(§1) The siRNA concentrations were measured using Quanti-iT RiboGreen RNA reagent (Molecular Probes, (R11490)). Vesicle sizes were characterized by dynamic light scattering with a DynaPro™ Plate Reader (Wyatt Technology) in 96-well half-area UV plate (Coring) after diluting the formulation sample (20 μL) in phosphate buffered saline (80 μL) at a pH of about 7-8. A 1% agarose gel-based assay was used for analyzing nuclease degradation and protection. Encapsulation efficiency (EE) was calculated using data obtained from a RiboGreen assay.
RNA concentration and encapsulation efficiency were determined using a Quant-iT® Ribogreen RNA reagent and kit available from Invitrogen. The siRNA was released from the Lipid-Based Particle using one of the following reagents: ethanol, Triton X-100, or phenol/chloroform. The siRNA concentration is quantified using fluorescent reading at 480 nm/520 nm.
(§2) A round bottom flask was submerged into a 65° C. water bath. Citrate buffer (37.5 ml) of pH 4.0 was pipetted into the flask. The solution was stirred by a magnetic stirring bar at a speed of 900 rpm. Both the pH 4.0 citrate buffer and the lipid solution were pre-warmed in the 65° C. water bath for about 3 minutes. A siRNA solution (0.5 ml) was pipetted into the pH 4.0 citrate buffer. The 12.5 ml lipid mixture solution was injected through a 27 gauge needle into the citrate buffer in about 30 seconds. The needle tip was inserted into the solution during the injection. The resulting solution was stirred for 5 minutes at a speed of 900 rpm. The flask was pulled up from the water bath and a 50 ml pH 7.4 PBS buffer was added into the flask. The final solution was further mixed at a speed of 900 rpm for 5 minutes. For the diafiltration process, a dialysis filter (Millipore, 100K, Cat #PXB100C50) was used to remove ethanol in the above solution. When the volume was reduced to 20 ml during the initial diafiltration, 20 ml of pH 7.4 PBS was added to the sample solution. The diafiltration was continued until the volume was reduced to 20 ml. The diafiltration process was repeated 4 times. The volume of the sample solution was reduced to about 12 ml and pH 7.4 PBS was added to make the final volume of 15 ml. The 15 ml solution was filtered sequentially through the 0.45 and 0.22 μm sterile PVDF membrane filters (Millipore) and immediately transferred into a sterile vial.

Series [2] is described as follows: Particle sizing assay of in vivo formulations (Zetasizer Nano ZS). On the procedure: as §2
For measurements of particle sizes and size distributions (PDI), lipid-based particles were prepared as described above. The particle solution (60 μL) was pipetted into a disposable cuvette (UVette, Eppendorf, cat #952010051) and measured in the “General Purpose” mode. Attenuator and position were optimized by the device. Measurements were performed using a Zetasizer Nano ZS (Malvern Instruments) equipped with a 4 mW He—Ne laser at a wavelength of 633 nm at 25° C. Scattered light was detected at a 173° backward scattering angle. The viscosity and refractive index of water at 25° C. was used for data analysis with the Dispersion Technology Software 5.00 (Malvern Instruments).

Series [3] is described as follows: Particle sizing assay of in vitro formulations (dynamic light scattering, DynaPro plate reader). The method, then: as §1
Particle sizes and size distributions (PDI) were characterized by using dynamic light scattering (DLS). A DLS plate reader (Dynapro™, Wyatt Technology) was used for the DLS measurement. This DLS plate reader uses an 830 nm laser and the scattering angle is 158°. It also can control temperature from 4° C. to 70° C. A 96-well format was employed for the samples.
Samples for DLS analysis were prepared by mixing 20 μL of each sample stock solution with 80 μL PBS directly in the 96-well plate (#3697, Coming). Sample mixing was accomplished using a microplate shaker (Orbis, Mikura Ltd.). Plates were read at 20° C. with an acquisition time of 50 seconds for each sample, and data was analyzed with Wyatt Technology's Dynamics V6 software. To rule out potential multiple scattering artifacts, a second plate at […] reduced sample concentrations was independently prepared by mixing 5 μL stock solutions with 95 μL PBS. Under our experimental conditions the results at the two concentrations were very similar, and the final reported result for each sample represents the average of values obtained from the two plates.

The mark [4] stands for this setting: in vivo formulation A: Cationic lipid/Example 58/DSPC/Chol 45/10/15/30 wt %.
The mark [5] stands for this setting: in vitro formulation b: Cationic lipid/PEG-Chol/DSPC/Chol 45/10/15/30 wt %.
Setting [6] is: in vivo formulation C: Cationic lipid/Pal-PEG-Cera/DSPC/Chol 45/10/15/30 wt %.
Setting [7] is: in vitro formulation a: Cationic lipid/Example 56/DSPC/Chol 45/10/15/30 wt %.
Where [8] appears, read: in vivo formulation D: Cationic lipid/PEG-DMPE/PEG-DSPE/DSPC/Chol 44/4.5/4.5/14/33 wt %.

Turning to `CCCCC/C=C\C/C=C\CCCCCCCCOCC(COCCCCCCCC/C=C\C/C=C\CCCCC)NCCCn1ccnc1` [Example 3, N-(3-(1H-imidazol-1-yl)propyl)-N-(2-((9Z,12Z)-octadeca-9,12-dienyloxy)-1-(((9Z,12Z)-octadeca-9,12-dienyloxy)methyl)ethyl)amine], in series [1] (setting [4]), the “% Encapsulation Efficiency” value is 87.6%. For the same compound, the Size in series [2] (setting [4]) was 185 nm.

Regarding `CCCCC/C=C\C/C=C\CCCCCCCCOCC(COCCCCCCCC/C=C\C/C=C\CCCCC)N1CCN(C)CC1` [Example 4, 1-methyl-4-(2-((9Z,12Z)-octadeca-9,12-dienyloxy)-1-(((9Z,12Z)-octadeca-9,12-dienyloxy)methyl)ethyl)piperazine], the values for the Size in series [3] (setting [5]) and in series [2] (setting [4]) were 125.6 nm and 149 nm, respectively. In addition, the “% Encapsulation Efficiency” value came out at 96.7% in series [1] (setting [5]) and 72.6% in series [1] (setting [4]). Moreover, the “PDI (size distribution)” value in series [2] (setting [4]) is reported as 0.2.

On to `CCCCC/C=C\C/C=C\CCCCCCCCOCC(COCCCCCCCC/C=C\C/C=C\CCCCC)NCCCN1CCCC1` [Example 6, N-(2-((9Z,12Z)-octadeca-9,12-dienyloxy)-1-(((9Z,12Z)-octadeca-9,12-dienyloxy)methyl)ethyl)-N-(3-pyrrolidin-1-ylpropyl)amine], for which the figures for the Size in series [3] (setting [5]) and in series [2] (setting [4]) were 132.6 nm and 121 nm, respectively. In addition, the “% Encapsulation Efficiency” value in series [1] (setting [5]) was found to be 84.2%; in series [1] (setting [4]), 75.5%. For the same compound, the “PDI (size distribution)” value in series [2] (setting [4]) was 0.145.

In the case of `CCCCC/C=C\C/C=C\CCCCCCCCOCC(COCCCCCCCC/C=C\C/C=C\CCCCC)NCCN(C)C` [Example 7, N,N-dimethyl-N′-(2-((9Z,12Z)-octadeca-9,12-dienyloxy)-1-(((9Z,12Z)-octadeca-9,12-dienyloxy)methyl)ethyl)ethane-1,2-diamine], the results for the Size in series [3] (setting [5]), in series [2] (setting [4]) and in series [2] (setting [6]) were 130 nm, 123 nm and 119 nm, respectively. Moreover, the “% Encapsulation Efficiency” value in series [1] (setting [5]) and in series [1] (setting [6]) was 91.8% throughout. Besides, the entries for the “PDI (size distribution)” value in series [2] (setting [4]) and in series [2] (setting [6]) were 0.15 and 0.128, respectively.

Turning to `CCCCC/C=C\C/C=C\CCCCCCCCOCC(COCCCCCCCC/C=C\C/C=C\CCCCC)N(C)CCCN(C)C` [Example 17, N,N,N′-trimethyl-N′-(2-((9Z,12Z)-octadeca-9,12-dienyloxy)-1-(((9Z,12Z)-octadeca-9,12-dienyloxy)methyl)ethyl)propane-1,3-diamine], in series [3] (setting [5]), the Size turned out to be 121.8 nm. For the same compound, the “% Encapsulation Efficiency” value in series [1] (setting [5]) was determined as 87.1%.

`CCCCC/C=C\C/C=C\CCCCCCCCOCC(COCCCCCCCC/C=C\C/C=C\CCCCC)N(C)Cc1cccc(CN2CCCC2)c1` [Example 18, N-methyl-N-(2-((9Z,12Z)-octadeca-9,12-dienyloxy)-1-(((9Z,12Z)-octadeca-9,12-dienyloxy)methyl)ethyl)-N-(3-(pyrrolidin-1-ylmethyl)benzyl)amine]: the Size in series [3] (setting [7]) is 122 nm. Also, the “% Encapsulation Efficiency” value in series [1] (setting [7]) stood at 96.7%.

`CCCCC/C=C\C/C=C\CCCCCCCCOCC(COCCCCCCCC/C=C\C/C=C\CCCCC)N1CCN(CCn2ccnc2)CC1` [Example 19, 1-(2-(1H-imidazol-1-yl)ethyl)-4-(2-((9Z,12Z)-octadeca-9,12-dienyloxy)-1-(((9Z,12Z)-octadeca-9,12-dienyloxy)methyl)ethyl)piperazine]: the Size in series [3] (setting [7]) came out at 118 nm. For the same compound, the “% Encapsulation Efficiency” value in series [1] (setting [7]) is given as 97.0%.

`CCCCC/C=C\C/C=C\CCCCCCCCOCC(COCCCCCCCC/C=C\C/C=C\CCCCC)NCc1cccnc1N1CCCC1` [Example 20, N-(2-((9Z,12Z)-octadeca-9,12-dienyloxy)-1-(((9Z,12Z)-octadeca-9,12-dienyloxy)methyl)ethyl)-N-((2-pyrrolidin-1-ylpyridin-3-yl)methyl)amine] had a Size in series [3] (setting [7]) of 134 nm. Further, in series [1] (setting [7]), the “% Encapsulation Efficiency” value is 55.9%.

With `CCCCC/C=C\C/C=C\CCCCCCCC(=O)OCC(COC(=O)CCCCCCC/C=C\C/C=C\CCCCC)N1CCN(C)CC1` [Example 21, (9Z,9′Z,12Z,12′Z)-2-(4-methylpiperazin-1-yl)propane-1,3-diyl dioctadeca-9,12-dienoate], in series [3] (setting [7]), the Size came out at 117.2 nm. The “% Encapsulation Efficiency” value in series [1] (setting [7]) was 96.6%.

As for `CCCCC/C=C\C/C=C\CCCCCCCC(=O)OCC(COC(=O)CCCCCCC/C=C\C/C=C\CCCCC)NCCCN1CCCC1` [Example 22, (9Z,9′Z,12Z,12′Z)-2-(3-(pyrrolidin-1-yl)propylamino)propane-1,3-diyl dioctadeca-9,12-dienoate], in series [3] (setting [7]), the Size amounted to 120.8 nm. For the same compound, the “% Encapsulation Efficiency” value in series [1] (setting [7]) is given as 88.4%.

For `CCCCC/C=C\C/C=C\CCCCCCCCOCC(COCCCCCCCC/C=C\C/C=C\CCCCC)CN1CCN(C)CC1` [Example 23, 1-methyl-4-(3-((9Z,12Z)-octadeca-9,12-dienyloxy)-2-(((9Z,12Z)-octadeca-9,12-dienyloxy)methyl)propyl)piperazine], the “% Encapsulation Efficiency” value in series [1] (setting [5]) is given as 98.1%; in series [1] (setting [4]) it was 93.2%. Also, the “PDI (size distribution)” value in series [2] (setting [4]) turned out to be 0.054. This compound also returned a Size in series [2] (setting [4]) of 116 nm.

`CCCCC/C=C\C/C=C\CCCCCCCCOCC(COCCCCCCCC/C=C\C/C=C\CCCCC)N1CCN(CCN2CCCC2)CC1` [Example 52, 1-(2-[(9Z,12Z)-octadeca-9,12-dienyloxy]-1-{[(9Z,12Z)-octadeca-9,12-dienyloxy]methyl}ethyl)-4-(2-pyrrolidin-1-ylethyl)piperazine] registered a Size in series [3] (setting [7]) of 111.6 nm. Besides, the “% Encapsulation Efficiency” value in series [1] (setting [7]) is 77.9%.

As for `CCCCCCCC/C=C\CCCCCCCCOCC(COCCCCCCCC/C=C\CCCCCCCC)NCCCN1CCCC1` [Example 53, N-(2-[(9Z)-octadec-9-enyloxy]-1-{[(9Z)-octadec-9-enyloxy]methyl}ethyl)-N-(3-pyrrolidin-1-ylpropyl)amine], the “% Encapsulation Efficiency” value in series [1] (setting [5]) is 99.0%. The “% Encapsulation Efficiency” value in series [1] (setting [8]) came out at 99.0%. In series [2] (setting [8]), the “PDI (size distribution)” value came out at 0.089 and the Size amounted to 121.2 nm.
